Experiment [1] concerns VE-cadherin. Nature of the experiment: VE-cadherin western blot and immunofluorescence in MEC monolayers. The class given is cell-based, human. Here is the method:
(§1) The jaggedness of these junctions is related to the structure of actin within the cell.
(§2) Glass-bottomed, 96-well plates with half well size were coated with 10 μg/ml FN1 for two hours at 37° C. The FN1 solution was then removed by aspiration and the plate seeded with 4×10^3 MECs in EGM-2MV media. After twenty-four hours, the cells were washed once with dPBS containing Ca^2+ and Mg^2+ to remove dead cells and the cells were allowed to grow for an additional twenty-four hours. For three-hour duration treatments (i.e., VE-cadherin), cells were washed twice with dPBS containing Ca^2+ and Mg^2+ and serum starved in EBM-2 for ninety minutes. The media was then removed and the cells were treated for three hours with 100 μl of EBM-2 media containing 200 ng/ml Ang2 or PBS and varying concentrations of AXT107 or DMSO. For fifteen minute-treated samples (i.e., phospho-Tie2), the cells were serum starved in EBM-2 media for 165 minutes, incubated for ninety minutes with varying concentrations of AXT107 or DMSO in EBM-2, and finally stimulated for fifteen minutes with 200 ng/ml Ang2 or PBS supplemented with peptide to retain the same concentrations. These times were chosen so that both treatment procedures would be completed at the same time. The cells were then washed twice with cold dPBS containing Ca^2+ and Mg^2+ and fixed in 10% neutral buffered formalin for fifteen minutes. […]

Experiment [2] deals with Tie2. Kind of experiment: Western blot of phospho-Tie2 (Y992) in MEC monolayers treated with AXT107 and angiopoietin. The class given is cell-based, human. Here is the method:
(§3) A confluent monolayer of human microvascular endothelial cells (HMEC) was serum starved with EBM-2 overnight. After a 90 min treatment with AXT107 at concentrations of 0, 10, 32, and 100 μM, the cells were treated for 15 min with 1 mM sodium orthovanadate. Next the cells were treated with Angiopoietin-2 (Ang-2) at 200 ng/mL for 15 min. Following cell lysis, the lysates were immunoblotted for pTie2 (Y992), pSTAT3 (Y705), and pAkt (S473).
To investigate the effects of the integrin inhibitor AXT107 on Tie2 signaling, confluent monolayers of microvascular endothelial cells (MECs) on fibronectin-coated dishes were treated with various concentrations of AXT107 followed by exposure to the Tie2 ligands Ang1 or Ang2.
(§4) For Ang1/2 signaling investigations, cell culture dishes (10 cm diameter) were coated with 5 μg/ml fibronectin (FN1; Sigma-Aldrich, St. Louis, Mo.) for two hours at 37° C. The FN1 solution was then removed by aspiration and 5×10^6 microvascular endothelial cells (MECs; Lonza, Walkersville, Md.) were plated in EGM-2MV media (Lonza) and cultured for forty-eight hours at 37° C. The cells were then serum starved for sixteen hours in serum-free EGM-2 base media (Lonza). AXT107 (0-100 μM, as indicated) was subsequently added to each culture and incubated for seventy-five minutes at 37° C. The cultures were then treated with 1 mM sodium vanadate (New England Biolabs, Ipswich, Mass.) for fifteen minutes to enhance the phospho-Tie2 signal followed by stimulation with 200 ng/ml angiopoietin (R&D Systems, Minneapolis, Minn.) for an additional fifteen minutes. The cells were then transferred to ice, washed twice with ice cold Dulbecco's phosphate-buffered saline (dPBS) containing Ca^2+ and Mg^2+, and collected by scraping in 500 μl of 1×Blue Loading Buffer (Cell Signaling, Danvers, Mass.). Lysate samples were then sonicated, boiled, and resolved by SDS-PAGE. Specific proteins were identified by Western blot, using the following primary antibodies: Cell Signaling—phospho-Tie2 (Y992) (Cat#: 4221), Tie2 (Cat#: 7403), phospho-Stat3 (Y705) (Cat#: 4113), Stat3 (Cat#: 4904), phospho-Akt (S473) (Cat#: 4058), Akt (Cat#: 9272), phospho-p44/42 MAPK (T202/Y204) (Cat#: 4370), p44/42 MAPK (Cat#: 4695); BD Transduction Laboratories—β1 integrin (Cat#: 610467); Millipore—α5 integrin (Cat#: AB1928) and detected with HRP-conjugated goat anti-rabbit and sheep anti-mouse secondary antibodies (GE healthcare).

Experiment [3] has as its system myosin light chain 2 (MLC2). Nature of the experiment: Western blot of pMLC2 in MECs treated with Ang2 and AXT107. It is filed as cell-based, human. Conditions: AXT107 and 200 ng/ml Ang2. On the procedure: Phosphorylation of Tie2 is known to stimulate the Rap1-GTPase pathway, leading to a reduction in the phosphorylation of the downstream motor protein myosin light chain 2 (MLC2) associated with actin rearrangement.
as §4, with “The cultures were then treated with 1 mM sodium vanadate (New England Biolabs, Ipswich, Mass.) for fifteen minutes to enhance the phospho-Tie2 signal followed by stimulation with 200 ng/ml angiopoietin (R&D Systems, Minneapolis, Minn.) for an additional fifteen minutes. The cells were then transferred to ice, washed twice with ice cold Dulbecco's phosphate-buffered saline (dPBS) containing Ca^2+ and Mg^2+, and collected by scraping in 500 μl of 1×Blue Loading Buffer (Cell Signaling, Danvers, Mass.). Lysate samples were then sonicated, boiled, and resolved by SDS-PAGE.” left out

Experiment [4] relates to Akt. Nature of the experiment: Western blot of phospho-Akt (S473) in MEC lysates treated with Ang2 and AXT107. The class given is cell-based, human. On the procedure: as §3
(§5) For Ang1/2 signaling investigations, cell culture dishes (10 cm diameter) were coated with 5 μg/ml fibronectin (FN1; Sigma-Aldrich, St. Louis, Mo.) for two hours at 37° C. The FN1 solution was then removed by aspiration and 5×10^6 microvascular endothelial cells (MECs; Lonza, Walkersville, Md.) were plated in EGM-2MV media (Lonza) and cultured for forty-eight hours at 37° C. […] Specific proteins were identified by Western blot, using the following primary antibodies: Cell Signaling—phospho-Tie2 (Y992) (Cat#: 4221), Tie2 (Cat#: 7403), phospho-Stat3 (Y705) (Cat#: 4113), Stat3 (Cat#: 4904), phospho-Akt (S473) (Cat#: 4058), Akt (Cat#: 9272), phospho-p44/42 MAPK (T202/Y204) (Cat#: 4370), p44/42 MAPK (Cat#: 4695); BD Transduction Laboratories—β1 integrin (Cat#: 610467); Millipore—α5 integrin (Cat#: AB1928) and detected with HRP-conjugated goat anti-rabbit and sheep anti-mouse secondary antibodies (GE healthcare).

Experiment [5] deals with STAT3. Nature of the experiment: Western blot of phospho-STAT3 (Y705) in MEC lysates treated with Ang2 and AXT107. The class given is cell-based, human. On the procedure:
as §3, §5

For experiment [6], the target named is integrin α5β1 (Homo sapiens, UniProt P05556+P08648). Conditions: Lee et al., Sci Rep. 2014; cited from earlier work.
Sequence of integrin α5β1 (P08648 42-1049): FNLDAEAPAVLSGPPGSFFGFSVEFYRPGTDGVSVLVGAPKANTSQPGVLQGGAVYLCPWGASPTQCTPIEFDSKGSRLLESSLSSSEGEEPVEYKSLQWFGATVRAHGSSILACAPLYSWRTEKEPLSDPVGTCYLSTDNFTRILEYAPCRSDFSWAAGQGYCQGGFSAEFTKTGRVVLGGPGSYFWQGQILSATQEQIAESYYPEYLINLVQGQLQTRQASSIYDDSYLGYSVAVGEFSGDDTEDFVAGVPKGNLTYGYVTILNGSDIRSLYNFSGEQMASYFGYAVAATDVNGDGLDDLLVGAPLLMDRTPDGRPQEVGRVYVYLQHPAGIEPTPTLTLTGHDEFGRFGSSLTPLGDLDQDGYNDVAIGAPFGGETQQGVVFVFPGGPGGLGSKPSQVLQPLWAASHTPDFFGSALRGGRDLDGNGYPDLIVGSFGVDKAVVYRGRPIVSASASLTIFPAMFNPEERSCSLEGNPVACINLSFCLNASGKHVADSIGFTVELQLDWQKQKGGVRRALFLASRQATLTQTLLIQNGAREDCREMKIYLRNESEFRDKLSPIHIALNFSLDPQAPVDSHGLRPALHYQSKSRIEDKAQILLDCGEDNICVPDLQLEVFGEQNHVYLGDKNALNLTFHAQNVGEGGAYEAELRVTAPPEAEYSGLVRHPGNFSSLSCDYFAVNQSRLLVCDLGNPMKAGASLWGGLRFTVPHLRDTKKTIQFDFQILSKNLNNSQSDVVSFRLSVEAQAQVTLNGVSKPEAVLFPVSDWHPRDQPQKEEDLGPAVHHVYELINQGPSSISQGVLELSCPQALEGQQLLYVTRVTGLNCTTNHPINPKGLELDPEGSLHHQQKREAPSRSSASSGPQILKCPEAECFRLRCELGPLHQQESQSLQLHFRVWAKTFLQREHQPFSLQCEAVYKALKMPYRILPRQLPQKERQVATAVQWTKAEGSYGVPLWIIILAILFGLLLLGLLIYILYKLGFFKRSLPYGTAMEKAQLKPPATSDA
Sequence of integrin α5β1 (P05556 21-798): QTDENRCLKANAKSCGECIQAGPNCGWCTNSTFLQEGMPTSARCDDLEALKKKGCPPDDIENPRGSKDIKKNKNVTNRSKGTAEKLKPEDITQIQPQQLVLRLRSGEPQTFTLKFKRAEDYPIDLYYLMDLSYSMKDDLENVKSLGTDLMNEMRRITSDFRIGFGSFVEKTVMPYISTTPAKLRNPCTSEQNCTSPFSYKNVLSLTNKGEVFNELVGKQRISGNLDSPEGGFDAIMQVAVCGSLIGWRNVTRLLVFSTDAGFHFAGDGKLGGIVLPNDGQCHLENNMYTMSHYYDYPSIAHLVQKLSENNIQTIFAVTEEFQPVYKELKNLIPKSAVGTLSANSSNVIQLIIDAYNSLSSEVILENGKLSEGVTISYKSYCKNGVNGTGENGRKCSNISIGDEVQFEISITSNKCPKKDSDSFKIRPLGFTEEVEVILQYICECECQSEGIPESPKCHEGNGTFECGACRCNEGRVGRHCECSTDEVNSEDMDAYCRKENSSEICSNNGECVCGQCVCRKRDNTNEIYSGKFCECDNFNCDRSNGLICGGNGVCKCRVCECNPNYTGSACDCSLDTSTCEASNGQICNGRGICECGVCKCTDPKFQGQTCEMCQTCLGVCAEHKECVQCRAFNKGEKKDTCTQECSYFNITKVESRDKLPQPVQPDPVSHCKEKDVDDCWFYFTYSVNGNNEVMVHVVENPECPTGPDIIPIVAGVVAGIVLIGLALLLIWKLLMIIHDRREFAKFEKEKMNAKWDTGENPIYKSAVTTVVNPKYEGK
The test system of experiment [7] is F-actin. Nature of the experiment: F-actin immunofluorescence in MEC monolayers. It is filed as cell-based, human. Conditions: 200 ng/ml Ang2, increasing concentrations of AXT107. Here is the method:
as §1, §2

In experiment [8] the target is integrin αvβ3 (Homo sapiens, UniProt P05106+P06756). Conditions: Lee et al., Sci Rep. 2014; cited from earlier work.
Sequence of integrin αvβ3 (P06756 31-1048): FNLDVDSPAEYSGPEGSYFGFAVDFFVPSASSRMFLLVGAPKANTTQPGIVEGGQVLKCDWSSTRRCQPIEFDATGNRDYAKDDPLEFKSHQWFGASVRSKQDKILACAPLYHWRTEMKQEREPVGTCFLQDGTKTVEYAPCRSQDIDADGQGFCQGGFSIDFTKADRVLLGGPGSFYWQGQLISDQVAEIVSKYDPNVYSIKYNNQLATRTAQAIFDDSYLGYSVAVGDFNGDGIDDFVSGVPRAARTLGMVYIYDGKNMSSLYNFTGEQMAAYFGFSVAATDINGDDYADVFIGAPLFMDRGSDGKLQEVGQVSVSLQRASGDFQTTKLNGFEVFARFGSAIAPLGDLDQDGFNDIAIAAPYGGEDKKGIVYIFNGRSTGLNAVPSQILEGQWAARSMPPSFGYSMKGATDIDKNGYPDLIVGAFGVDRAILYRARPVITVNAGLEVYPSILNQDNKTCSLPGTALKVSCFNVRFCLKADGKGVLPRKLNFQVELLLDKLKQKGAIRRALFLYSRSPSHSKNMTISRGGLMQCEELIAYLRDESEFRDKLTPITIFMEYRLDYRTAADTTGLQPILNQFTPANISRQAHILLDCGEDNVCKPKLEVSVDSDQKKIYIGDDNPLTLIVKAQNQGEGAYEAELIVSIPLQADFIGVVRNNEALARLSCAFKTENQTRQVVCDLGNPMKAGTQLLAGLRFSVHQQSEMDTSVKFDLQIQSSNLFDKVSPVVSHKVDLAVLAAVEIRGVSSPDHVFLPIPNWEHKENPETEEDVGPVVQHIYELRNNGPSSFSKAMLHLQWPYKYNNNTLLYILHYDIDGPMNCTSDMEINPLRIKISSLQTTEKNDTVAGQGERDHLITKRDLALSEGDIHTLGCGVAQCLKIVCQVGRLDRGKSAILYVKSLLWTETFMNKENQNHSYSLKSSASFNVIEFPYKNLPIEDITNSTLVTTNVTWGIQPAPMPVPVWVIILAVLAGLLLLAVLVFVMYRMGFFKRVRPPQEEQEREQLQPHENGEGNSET
Sequence of integrin αvβ3 (P05106 27-788): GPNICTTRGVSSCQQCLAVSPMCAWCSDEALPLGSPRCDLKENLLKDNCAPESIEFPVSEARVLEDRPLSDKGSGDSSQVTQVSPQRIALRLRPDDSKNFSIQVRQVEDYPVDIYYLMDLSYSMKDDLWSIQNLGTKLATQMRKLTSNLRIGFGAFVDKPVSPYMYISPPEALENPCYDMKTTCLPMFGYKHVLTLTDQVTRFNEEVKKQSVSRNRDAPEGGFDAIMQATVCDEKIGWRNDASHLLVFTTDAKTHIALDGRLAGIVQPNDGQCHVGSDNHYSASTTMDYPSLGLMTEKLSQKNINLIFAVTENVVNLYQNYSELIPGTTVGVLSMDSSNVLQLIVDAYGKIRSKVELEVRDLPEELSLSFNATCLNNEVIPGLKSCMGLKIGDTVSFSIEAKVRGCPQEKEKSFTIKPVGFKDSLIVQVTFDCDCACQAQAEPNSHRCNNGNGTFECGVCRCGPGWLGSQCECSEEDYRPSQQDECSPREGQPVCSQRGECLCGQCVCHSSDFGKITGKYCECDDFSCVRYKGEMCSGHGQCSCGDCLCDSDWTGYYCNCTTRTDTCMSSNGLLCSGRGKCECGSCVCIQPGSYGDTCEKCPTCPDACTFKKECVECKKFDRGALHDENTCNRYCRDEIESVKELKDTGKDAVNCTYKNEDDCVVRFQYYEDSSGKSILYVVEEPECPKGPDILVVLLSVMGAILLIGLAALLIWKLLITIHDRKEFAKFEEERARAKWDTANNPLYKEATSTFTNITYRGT
Experiment [9] has as its system Tie2. Kind of experiment: Retinopathy of prematurity (ROP) mouse model, Tie2 activation. It is filed as in vivo. Conditions: no data given. The source says:
To investigate the effects of AXT107 on Tie2 activation in vivo, retinopathy of prematurity (ROP) mouse model was used. In this system, P7 pups are placed in 75% 02 for five days, resulting in a loss of retinal capillary density from hyperoxia and a rapid induction of neovascularization upon the pup's return to normoxic conditions. […] Increased levels of Ang2 in the vitreous contribute to vessel leakage and macular edema in various retinopathies.

“Also recorded” adds a separate entry of the source.

On to LRRFSTAPFAFIDINDVINF [AXT107], for which, in [1] (200 ng/ml Ang2, increasing concentrations of AXT107), the “distribution of VE-cadherin at junctions” value is given as “became progressively smoother”. Moreover, the “total level of VE-cadherin” value in [1] (three hours of AXT107 and 200 ng/ml Ang2) is given as “remained unchanged”. Further, the Tie2 phosphorylation entry in [2] (AXT107 0-100 μM, then 200 ng/ml Ang2 15 min) is reported as “increased phosphorylation; also recorded: significant, dose-dependent increase”. Also, the “Ang1 activity (Tie2 phosphorylation)” value in experiment [2] (AXT107 followed by Ang1, data not shown) is recorded as “did not significantly influence”. The “total protein levels of Tie2” value in experiment [2] (AXT107 with angiopoietin) was “remained unchanged; also recorded: does not influence total levels of Tie2”. Moreover, the “phosphorylation by peptide alone” value in experiment [2] (in absence of either ligand) is given as “not induced”. Besides, the “phosphorylation of MLC2” value in [3] is on record as “reduced in a dose-dependent manner”. The Akt phosphorylation result in [4] is “increased phosphorylation”. For the same sequence, in experiment [5], the STAT3 phosphorylation result is “increased phosphorylation”. For the same sequence, in [6], the “binding to integrin α5β1” value is recorded as “binds tightly”. For the same sequence, the actin fiber arrangement entry in [7] was “became more cortical”. Also, in [8], the “binding to integrin αvβ3” value is “binds tightly”. Moreover, the “activation of Tie2 by Ang2 in vivo” value in [9] is reported as “potentiates the activation of Tie2 by Ang2”.

(Values after US20190225670A1, “COMPOUNDS AND METHODS FOR ACTIVATING TIE2 SIGNALING” (ASCLEPIX THERAPEUTICS, LLC, priority 2016, published 2019).)
